Assay results published in patent US11578087B2, “Oxaborole esters and uses thereof” (priority 2016, dated 2023).

Columns and labels:
[1] = test system: IL3000 T. congolense (drug sensitive) strain; assay: In vitro Alamar Blue 72 h drug sensitivity assay for T. congolense; type: cell-based, Trypanosoma congolense; details: Trypanosoma congolense, 72 h, bloodstream form, 69 h + 3 h Resazurin, 34° C., read-out: IC50: I Org. Growth T. congolense 3 d
Method in brief: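 Bloodstream-form trypanosomes in HMI medium with 20% bovine serum were exposed to compounds for 69 h at 34° C, 5% CO2, then resazurin for another 3 h. Fluorescence read at ex 536/em 588 nm; IC50 from 11-point sigmoidal dose-response curves, at least three independent runs.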

[2] = test system: STIB719/ILRAD560 T. vivax (drug sensitive) strain; assay: Ex vivo Alamar Blue 48 h drug sensitivity assay for T. vivax; type: cell-based; details: Trypanosoma vivax, ex vivo bloodstream form from mouse, 45 hrs + 3 hrs Resazurin, 37° C., read-out: IC50: I Hypoxanthine Incorporation T. vivax 2 d
[3] = test system: T. cruzi amastigote (Td Tomato-modified) in Vero cells; assay: In vitro IC50 measurement of T. cruzi amastigote killing using Td Tomato-modified T. cruzi; type: cell-based; details: Trypanosoma cruzi, 72 h, fluorescence, read-out: IC50: I Org. amastigote Growth T. cruzi 3 d
Method in brief: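 Vero cells infected with Td Tomato-expressing T. cruzi, treated with compound at 5 uM to 5 nM final, incubated 72 h at 37 °C. Fluorescence (Ex 544/Em 612 nm) read at Day 0 and Day 3, Day 0 subtracted; IC50 and IC90 by nonlinear regression.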

Structure (SMILES) | IC50 [1] | IC50 [2] | IC50 [3]
Cc1c(C(=O)N[C@H](C(=O)OCc2ccc3c(c2)C(=O)CS3(=O)=O)C(C)C)ccc2c1B(O)OC2 [Example 6-104, (1,1-Dioxido-3-oxo-2,3-dihydrobenzo[b]thiophen-5-yl)methyl (1-hydroxy-7-methyl-1,3-dihydrobenzo[c][1,2]oxaborole-6-carbonyl)-L-valinate] | 10 to 5000 nM | 0.51 to 49.9 nM | –
CC(C)c1c(C(=O)N[C@H](C(=O)OCc2ccc(F)cc2)C(C)C)ccc2c1B(O)OC2 [Example 6-062, 4-Fluorobenzyl (1-hydroxy-7-isopropyl-1,3-dihydrobenzo[c][1,2]oxaborole-6-carbonyl)-L-valinate] | 0.51 to 9.99 nM | < 0.5 nM | –
CC(C)[C@H](NC(=O)c1ccc2c(c1)B(O)OC2(C)C)C(=O)OCc1ccccc1 [Example 6-032, Benzyl (1-hydroxy-3,3-dimethyl-1,3-dihydrobenzo[c][1,2]oxaborole-6-carbonyl)-L-valinate] | 10 to 5000 nM | > 2000 nM | –
CC(C)c1c(C(=O)N[C@H](C(=O)OCc2ccc(S(C)(=O)=O)cc2)C(C)C)ccc2c1B(O)OC2 [Example 6-084, 4-(Methylsulfonyl)benzyl (1-hydroxy-7-isopropyl-1,3-dihydrobenzo[c][1,2]oxaborole-6-carbonyl)-L-valinate] | 10 to 5000 nM | 0.51 to 49.9 nM | –
Cc1c(C(=O)N[C@H](C(=O)OCc2ccc(F)cc2)c2ccccc2)ccc2c1B(O)OC2 [Example 6-045, 4-Fluorobenzyl (S)-2-(1-hydroxy-7-methyl-1,3-dihydrobenzo[c][1,2]oxaborole-6-carboxamido)-2-phenylacetate] | < 0.5 nM | < 0.5 nM | –
Cc1c(C(=O)N[C@H](C(=O)OCc2cnc(C(F)(F)F)nc2)C(C)C)ccc2c1B(O)OC2 [Example 6-159, (2-(Trifluoromethyl)pyrimidin-5-yl)methyl (1-hydroxy-7-methyl-1,3-dihydrobenzo[c][1,2]oxaborole-6-carbonyl)-L-valinate] | < 0.5 nM | < 0.5 nM | –
Cc1c(C(=O)N[C@H](C(=O)OCc2ccc(F)cc2)[C@H](C)O)ccc2c1B(O)OC2 [Example 6-088, 4-Fluorobenzyl (1-hydroxy-7-methyl-1,3-dihydrobenzo[c][1,2]oxaborole-6-carbonyl)-L-allothreoninate] | 0.51 to 9.99 nM | 0.51 to 49.9 nM | –
CCc1c(C(=O)N[C@H](C(=O)OCc2ccc(F)cc2)C(C)C)ccc2c1B(O)OC2 [Example 6-052, 4-Fluorobenzyl (7-ethyl-1-hydroxy-1,3-dihydrobenzo[c][1,2]oxaborole-6-carbonyl)-L-valinate] | < 0.5 nM | < 0.5 nM | –
C[C@@H](OC(=O)[C@H](Cc1ccccc1)NC(=O)c1ccc2c(c1)B(O)OC2)c1ccccc1 [Example 6-021, (R)-1-phenylethyl (1-hydroxy-1,3-dihydrobenzo[c][1,2]oxaborole-6-carbonyl)-L-phenylalaninate] | 0.51 to 9.99 nM | 0.51 to 49.9 nM | –
C[C@H](NC(=O)c1ccc2c(c1)B(O)OC2)C(=O)O[C@@H](C)c1ccccc1 [Example 6-022, (S)-1-phenylethyl (1-hydroxy-1,3-dihydrobenzo[c][1,2]oxaborole-6-carbonyl)-L-alaninate] | 10 to 5000 nM | 50 to 2000 nM | –
COC(=O)[C@@H](NC(=O)c1ccc2c(c1C)B(O)OC2)[C@@H](C)OCc1ccccc1 [Example 6-078, Methyl O-benzyl-N-(1-hydroxy-7-methyl-1,3-dihydrobenzo[c][1,2]oxaborole-6-carbonyl)-L-threoninate] | 10 to 5000 nM | 0.51 to 49.9 nM | –
Cc1c(C(=O)N[C@H](C(=O)OCc2ccc(OCCCN3CCCC3)c(F)c2)C(C)C)ccc2c1B(O)OC2 [Example 6-246, 3-Fluoro-4-(3-(pyrrolidin-1-yl)propoxy)benzyl (1-hydroxy-7-methyl-1,3-dihydrobenzo[c][1,2]oxaborole-6-carbonyl)-L-valinate] | 0.51 to 9.99 nM | < 0.5 nM | –
CC(C)[C@H](NC(=O)c1ccc2c(c1C1CC1)B(O)OC2)C(=O)OCc1ccc(F)cc1 [Example 6-057, 4-Fluorobenzyl (7-cyclopropyl-1-hydroxy-1,3-dihydrobenzo[c][1,2]oxaborole-6-carbonyl)-L-valinate] | 0.51 to 9.99 nM | < 0.5 nM | –
Cc1c(C(=O)N[C@H](C(=O)OCc2cc(F)cc(F)c2)C(C)C)ccc2c1B(O)OC2 [Example 6-048, 3,5-Difluorobenzyl (1-hydroxy-7-methyl-1,3-dihydrobenzo[c][1,2]oxaborole-6-carbonyl)-L-valinate] | < 0.5 nM | < 0.5 nM | –
C[C@H](NC(=O)c1ccc2c(c1)B(O)OC2)C(=O)OCc1ccccc1 [Example 6-174, Benzyl (1-hydroxy-1,3-dihydrobenzo[c][1,2]oxaborole-6-carbonyl)-L-alaninate] | 0.51 to 9.99 nM | 50 to 2000 nM | –
C[C@H](NC(=O)c1ccc2c(c1)B(O)OC2)C(=O)O[C@H](C)c1ccccc1 [Example 6-019, (R)-1-Phenylethyl (1-hydroxy-1,3-dihydrobenzo[c][1,2]oxaborole-6-carbonyl)-L-alaninate] | 0.51 to 9.99 nM | 50 to 2000 nM | –
Cc1c(C(=O)N[C@H](C(=O)OCCN2CCOCC2C)C(C)C)ccc2c1B(O)OC2 (stereo partly drawn) [Example 6-219, 2-(3-methylmorpholino)ethyl (1-hydroxy-7-methyl-1,3-dihydrobenzo[c][1,2]oxaborole-6-carbonyl)-L-valinate] | < 0.5 nM | – | 21 to 999 nM
Cc1c(C(=O)N[C@H](C(=O)OCc2ccc(CN3CCCC3)cc2)C(C)C)ccc2c1B(O)OC2 [Example 6-131, 4-(Pyrrolidin-1-ylmethyl)benzyl (1-hydroxy-7-methyl-1,3-dihydrobenzo[c][1,2]oxaborole-6-carbonyl)-L-valinate] | < 0.5 nM | – | 21 to 999 nM
Cc1c(C(=O)N[C@H](C(=O)OCc2ccc(C(F)(F)F)cn2)C(C)C)ccc2c1B(O)OC2 [Example 6-171, (5-(trifluoromethyl)pyridin-2-yl)methyl (1-hydroxy-7-methyl-1,3-dihydrobenzo[c][1,2]oxaborole-6-carbonyl)-L-valinate] | < 0.5 nM | – | ≤ 20 nM
Cc1c(C(=O)N[C@H](C(=O)OCc2cccc(Cl)c2)C(C)C)ccc2c1B(O)OC2 [Example 6-043, 3-Chlorobenzyl (1-hydroxy-7-methyl-1,3-dihydrobenzo[c][1,2]oxaborole-6-carbonyl)-L-valinate] | < 0.5 nM | – | ≤ 20 nM
Cc1c(C(=O)N[C@H](C(=O)OCCN2CCOC2=O)C(C)C)ccc2c1B(O)OC2 [Example 6-216, 2-(2-oxooxazolidin-3-yl)ethyl (1-hydroxy-7-methyl-1,3-dihydrobenzo[c][1,2]oxaborole-6-carbonyl)-L-valinate] | 10 to 5000 nM | – | ≥ 1000 nM
Cc1c(C(=O)N[C@H](C(=O)OCc2ccc(F)cn2)C(C)C)ccc2c1B(O)OC2 [Example 6-067, (5-Fluoropyridin-2-yl)methyl (1-hydroxy-7-methyl-1,3-dihydrobenzo[c][1,2]oxaborole-6-carbonyl)-L-valinate] | < 0.5 nM | – | ≤ 20 nM
Cc1c(C(=O)N[C@H](C(=O)OCCN2CCCC2)C(C)C)ccc2c1B(O)OC2 [Example 6-095, 2-(Pyrrolidin-1-yl)ethyl (1-hydroxy-7-methyl-1,3-dihydrobenzo[c][1,2]oxaborole-6-carbonyl)-L-valinate] | 0.51 to 9.99 nM | – | ≥ 1000 nM
Cc1c(C(=O)N[C@H](C(=O)OCc2cnccn2)C(C)C)ccc2c1B(O)OC2 [Example 6-186, Pyrazin-2-ylmethyl (1-hydroxy-7-methyl-1,3-dihydrobenzo[c][1,2]oxaborole-6-carbonyl)-L-valinate] | 0.51 to 9.99 nM | – | 21 to 999 nM
Cc1c(C(=O)N[C@H](C(=O)OCc2ccc(F)cc2)C2CCCC2)ccc2c1B(O)OC2 [Example 6-060, 4-Fluorobenzyl (S)-2-cyclopentyl-2-(1-hydroxy-7-methyl-1,3-dihydrobenzo[c][1,2]oxaborole-6-carboxamido)acetate] | 0.51 to 9.99 nM | – | 21 to 999 nM
Cc1c(C(=O)NC2(C(=O)OCCN3CCOCC3)COC2)ccc2c1B(O)OC2 [Example 6-222, 2-morpholinoethyl 3-(1-hydroxy-7-methyl-1,3-dihydrobenzo[c][1,2]oxaborole-6-carboxamido)oxetane-3-carboxylate] | 10 to 5000 nM | – | ≥ 1000 nM
Cc1c(C(=O)N(C)[C@H](C(=O)OCc2ccc(F)cc2)C(C)C)ccc2c1B(O)OC2 [Example 6-118, 4-Fluorobenzyl N-(1-hydroxy-7-methyl-1,3-dihydrobenzo[c][1,2]oxaborole-6-carbonyl)-N-methyl-L-valinate] | 10 to 5000 nM | – | ≥ 1000 nM
Cc1c(C(=O)N[C@H](C(=O)OCc2cnc3ccccc3n2)C(C)C)ccc2c1B(O)OC2 [Example 6-123, Quinoxalin-2-ylmethyl (1-hydroxy-7-methyl-1,3-dihydrobenzo[c][1,2]oxaborole-6-carbonyl)-L-valinate] | < 0.5 nM | – | ≤ 20 nM
Cc1c(C(=O)N[C@H](C(=O)OC2CCC(F)(F)CC2)C(C)C)ccc2c1B(O)OC2 [Example 6-155, 4,4-Difluorocyclohexyl (1-hydroxy-7-methyl-1,3-dihydrobenzo[c][1,2]oxaborole-6-carbonyl)-L-valinate] | < 0.5 nM | – | ≤ 20 nM
Cc1c(C(=O)N[C@H](C(=O)OCCN2CCOCC2)C(C)C)ccc2c1B(O)OC2 [Example 6-170, 2-Morpholinoethyl (1-hydroxy-7-methyl-1,3-dihydrobenzo[c][1,2]oxaborole-6-carbonyl)-L-valinate] | 0.51 to 9.99 nM | – | 21 to 999 nM
